Data set [1] in a line: WST-1 cytotoxicity test, HeLa. To be noted: human, HeLa cells, 48 h, WST-1, mean ± SD of three experiments, read-out: relative viability (%) compared to untreated control. The class given is cell-based. The protocol: (§1) In this study, the cytotoxic effects of nine new compounds (2, 3, 4, 5, 6, 7, 8, 9, 10) were tested on 10 human cell lines (nine cancer and one non-cancer cell line). The cell lines were treated with each compound at concentrations of 10 µM and 100 µM for 48 h. The proliferation capacity of the treated cells was determined by WST-1 test and compared against the proliferation rate of the untreated control cells (100%).
(§2) The cell lines Jurkat, MOLT-4, A2780, A549, HT-29, PANC-1, HeLa, MCF-7, SAOS-2, and MRC-5 (all purchased from Sigma Aldrich, Czech Republic) were included in this study. All cell lines were maintained according to the provider’s guidelines, and plated and treated in 96-well plates (500 to 30 × 10^3 cells per well). The tested compounds 2, 3, 4, 5, 6, 7, 8, 9, and 10 were dissolved in 0.1% DMSO and kept in 10 mM stock solutions. Before use, the stock solution was diluted in culture media at ratios of 1:100 and 1:1000. The studied cell lines were treated with the compounds 2, 3, 4, 5, 6, 7, 8, 9, and 10 at concentrations of 10 and 100 µM for 48 h. Control cells were tested in culture media with and without DMSO (0.1%). The cells were also treated with 1 µM doxorubicin as a cytotoxicity control.
(§3) The WST-1 (2-(4-iodophenyl)-3-(4-nitrophenyl)-5-(2,4-disulfophenyl)-2H-tetrazolium, monosodium salt) test (Roche, Mannheim, Germany) was used according to the manufacturer’s protocol to determine cell viability in all 10 cell lines 48 h after treatment with the tested compounds. The cells were analyzed in a Tecan Infinite M200 spectrometer (Tecan Group, Männedorf, Switzerland) at 440 nm.
Background: Tetrazolium assays rely on reduction of a dye to a coloured formazan, in cell work by metabolically active cells.

For a further data set, the system named is A549 cells. Nature of the data set: MTT assay, IC50 and MTC. The conditions noted are these: for IC50 fold higher than that for compound 2 / MTC (maximum tolerated concentration): A549 cells, MTT; for MTC (maximum tolerated concentration): 24 h of treatment; for IC50: Homo sapiens, A549, 24 h, read-out: IC50 ± SEM.
The next data set concerns BALB/c mice. As to the kind of experiment: Survival of whole-body irradiated mice. The class given is in vivo. To be noted: female BALB/c mice; for day post-irradiation of onset of lethal effect / decline in survival: i.p. at 50% of MTD 5 min before 7.15 Gy, non-treated control 10 days; for survival at day 30 post-irradiation: n = 10, i.p. at 50% of MTD 5 min before 7.15 Gy, control 40%. The protocol:
To estimate the radioprotective effect on whole-body irradiated mice, compounds 4 (50 mg/kg), 5 (100 mg/kg), 6 (50 mg/kg), 7 (100 mg/kg), 8 (1000 mg/kg), and 10 (325 mg/kg) were injected (intraperitoneally, i.p.) 5 min before receiving 7.15 Gy of gamma radiation. These compounds were selected based on the cytotoxicity screening in vitro, and applied at a dose corresponding to 50% of the MTD in vivo. […] The follow-up period was 30 days.
Adult female BALB/c mice (21 ± 0.8 g) were used for all experiments (Velaz a.s., Prague, Czech Rep.). All the performed methods were in accordance with NIRS Guidelines for the Care and Use of Laboratory Animals and approved by the Committee for animal rights of the Ministry of Defence of the Czech Republic no. ČJ MO 255172/2019-684800. The mice, arranged in groups of 10 animals each, received a dose of 7.15 Gy from a ^60Co gamma source (Chisotron, Chirana, Czech Republic) at a dose rate of 1.04 Gy/min. Non-irradiated and non-treated control groups were included. Their survival and health status were checked on a daily basis for 30 days.
Compounds 4 (50 mg/kg), 5 (100 mg/kg), 6 (50 mg/kg), 7 (100 mg/kg), 8 (1000 mg/kg), and 10 (325 mg/kg) were selected and administered i.p. 5 min before irradiation. The doses were prepared from 100 mg/mL stock before each experiment.

Another data set deals with MOLT-4 cells. As to the kind of experiment: Radioprotection in vitro, Annexin V/PI flow cytometry after irradiation. The class given is cell-based, human. The conditions noted are these: Homo sapiens, MOLT-4, light or radiation study, 60-min pre-treatment, 1 Gy, 24 h following irradiation, irradiated untreated 40%, non-irradiated control 92%, read-out: percentage of viable MOLT-4 cells (Annexin V and PI negative) after irradiation. The text has this: Phosphatidylserine, a major component of the inner leaflet of the cytoplasmic membrane bilayers, is frequently used as an indicator of cell death. The externalization of this phospholipid can be detected through Annexin V, which binds to phosphatidylserine in the presence of calcium. Cell viability was quantified by Annexin V-Alexa Fluor® 488/propidium iodide (PI) staining and flow cytometry analysis to determine whether the tested compounds could prevent radiation-induced cell death in MOLT-4 cells. The percentage of viable cells was 92% for non-irradiated control (0.1% DMSO vehicle) and 40% for untreated irradiated cells (1 Gy) (Figure 2A).
Fresh 50 mM stock solutions of the compounds were prepared in DMSO (Sigma-Aldrich, St. Louis, MO, USA) before use in the study. For the radioprotection experiments, MOLT-4 cells were treated with 100 μM solutions of the novel compounds and irradiated after 60 min with a ^60Co γ-ray source (Chisotron Chirana, Prague, Czech Republic). The non-irradiated and irradiated control cells were treated with DMSO vehicle only (0.1%) and handled in parallel with the experimental cells. Non-irradiated control cells were handled in the same manner. Cell viability was determined by flow cytometry using an Alexa Fluor® 488 Annexin V/Dead Cell Apoptosis kit (Life Technologies, Grand Island, NY, USA) according to the manufacturer’s instructions. The Alexa Fluor® 488 Annexin V/Dead Cell Apoptosis kit employs the property of Alexa Fluor® 488 conjugated to Annexin V to bind to phosphatidylserine in the presence of Ca^2+, and the property of propidium iodide (PI) to enter cells with damaged cell membranes and bind to DNA. Measurement was performed using a CyAn (Beckman Coulter, Miami, FL, USA) flow cytometer. Listmode data was analyzed with the Kaluza Analysis v1.3 software (Beckman Coulter, Miami, FL, USA).

Data set [2] can be described thus: WST-1 cytotoxicity test, A2780. It counts as cell-based. The conditions noted are these: human, A2780 cells, 48 h, WST-1, mean ± SD of three experiments, read-out: relative viability (%) compared to untreated control; for viability at 48 h, 10 µM: A2780, 10 µM; for viability at 48 h, 100 µM: A2780, 100 µM. The protocol:
as §1, §2, §3

Data set [3] can be described thus: WST-1 cytotoxicity test, A549. The class given is cell-based. To be noted: human, A549 cells, 48 h, WST-1, mean ± SD of three experiments, read-out: relative viability (%) compared to untreated control; for viability at 48 h, 10 µM: A549, 10 µM; for viability at 48 h, 100 µM: A549, 100 µM. Here is the method: as §1, §2, §3
A short description of data set [4]: WST-1 cytotoxicity test, MCF-7. It counts as cell-based. The conditions noted are these: human, MCF-7 cells, 48 h, WST-1, mean ± SD of three experiments, read-out: relative viability (%) compared to untreated control; for viability at 48 h, 10 µM: MCF-7, 10 µM; for viability at 48 h, 100 µM: MCF-7, 100 µM. Here is the method:
as §1, §2, §3

The nature of data set [5]: WST-1 cytotoxicity test, SAOS-2. The class given is cell-based. To be noted: human, SAOS-2 cells, 48 h, WST-1, mean ± SD of three experiments, read-out: relative viability (%) compared to untreated control; for viability at 48 h, 10 µM: SAOS-2, 10 µM; for viability at 48 h, 100 µM: SAOS-2, 100 µM. The protocol:
as §1, §2, §3

Counter-ions that a name gives are not always drawn.

Procedure for A549 cells: In further experiments, MTT (3-(4,5-di-methylthiazol-2-yl)-2,5-diphenyltetrazolium bromide) assay was employed to evaluate the toxicological indexes of the newly synthesized compounds, including IC50 (half-maximal inhibitory concentration) and MTC (maximum tolerated concentration).
IC50 and MTC were determined through MTT assays. The MTT assay was performed according to [35]. In brief, the A549 cell line was plated in 96-well plates (100 µL, 9 × 10^3 cells per well) and incubated overnight. The tested compounds were prepared in phosphate buffer saline (PBS; Sigma–Aldrich) and serially diluted in DMEM (Dulbecco’s Modified Eagle Medium). An untreated control was included as a viability standard in each plate. After 24 h of treatment, the viability of A549 cells was measured at 570 nm. All experiments were performed in triplicate. The GraphPad Prism statistics software v5.04 (GraphPad Software Inc., San Diego, CA, USA) was used to calculate the IC50 values for parameter nonlinear regression. Values are expressed as mean ± SEM.

As to `OCCN1CCN(CC(O)CN2CCN(CCO)CC2)CC1` [Compound 8, 1.3-bis [4-(2-hydroxyethyl)piperazin-1-yl)propan-2-ol tetrahydrochloride], in data set [1], the viability at 48 h, 10 µM is 103 ± 4% and the viability at 48 h, 100 µM amounted to 100 ± 18%. In addition, in the data set on A549 cells, the “IC50 fold higher than that for compound 2” value came to 625 fold, the “MTC (maximum tolerated concentration)” value is 6.25 mM and the IC50 was above 25 mM. Moreover, in the data set with BALB/c mice, the “day post-irradiation of onset of lethal effect / decline in survival” value is recorded as above 12 days and the “survival at day 30 post-irradiation” value was 70%. Moreover, the viability at 100 µM with MOLT-4 cells is 57%. For the same molecule, in data set [2], the viability at 48 h, 10 µM was 104 ± 4% and the viability at 48 h, 100 µM came to 76 ± 10%. For the same molecule, in data set [3], the viability at 48 h, 10 µM stood at 97 ± 5% and the viability at 48 h, 100 µM is 111 ± 11%. Further, in data set [4], the viability at 48 h, 10 µM was 101 ± 5% and the viability at 48 h, 100 µM came out at 96 ± 7%. Moreover, in data set [5], the viability at 48 h, 10 µM was 102 ± 6% and the viability at 48 h, 100 µM was found to be 87 ± 7%.
Consider `Cl.Cl.Cl.OCCN1CCN(CC(O)CNc2ccccc2)CC1` (centres unmarked) [Compound 10, 1-(phenylamino]-3-[4-(2-hydroxyethyl)piperazin-1-yl)propan-2-ol trihydrochloride], for which the viability at 48 h, 10 µM in data set [1] worked out at 110 ± 7%; in data set [2], 103 ± 6%; in data set [3], 105 ± 9%; in data set [4], 98 ± 2%; in data set [5] it was 97 ± 6%. Besides, the viability at 48 h, 100 µM was 121 ± 3% in data set [1]; 96 ± 2% in data set [2]; 105 ± 2% in data set [3]; 96 ± 6% in data set [4]; 102 ± 2% in data set [5]. In addition, the “IC50 fold higher than that for compound 2” value in the data set with A549 cells turned out to be 126.5 fold. In addition, the “MTC (maximum tolerated concentration)” value with A549 cells is on record as 1.56 mM. Further, the IC50 with A549 cells is 5.06 ± 0.23 mM. The “day post-irradiation of onset of lethal effect / decline in survival” value with BALB/c mice was above 12 days. In addition, in the data set with BALB/c mice, the “survival at day 30 post-irradiation” value was determined as 30%. Moreover, the viability at 100 µM with MOLT-4 cells worked out at 51%.

A word on the IC50: it is the concentration that gives 50% inhibition.

(Values after publication PMC7038073, “Substituted Piperazines as Novel Potential Radioprotective Agents” (Molecules, 2020).)
